Reference: paper PMC12040169 (PLOS Biology, 2025)

Experiment: in vitro
Settings: human, hela cells, % viability
With `Cc1nc(CCCn2cnc3nccnc3c2=O)sc1C` [CBK306962] the viability at 28.5 h, 10 µM was 103%. `Fc1cc(Br)ccc1-c1cn(-c2ccc(Oc3ccccc3)cc2)nn1` [CBK113145] showed a viability at 28.5 h, 10 µM of 89.5%. Compound `CCn1ncc2c1CCCC2NC1CCCN(c2cnn(C)c2)C1=O` (centres unmarked) [CBK305316] has a viability at 28.5 h, 10 µM of 88.7%. With `c1ccc(Cn2c(-c3ccccc3)c(-c3ccccc3)c3c2ncn2nc(-c4cccnc4)nc32)cc1` [CBK265359] the viability at 28.5 h, 10 µM was 109%. `Cc1nc(CNC(=O)NC2CCCN(c3ncccn3)C2)cs1` (centres unmarked) [CBK305640] showed a viability at 28.5 h, 10 µM of 95.3%. With `COc1cc(NC(=O)N2CCN(c3cc(C(F)(F)F)ccn3)CC2)cc(OC)c1OC` [CBK162349] the viability at 28.5 h, 10 µM was 95.2%. `O=C1NCC2(C/C=C/CCOc3ccccc31)CCN(Cc1ccccn1)CC2` [CBK292159] gave a viability at 28.5 h, 10 µM of 84.2%. In the case of `CC(C)(C)C1=CC2=NC3(CCC3)[C@@H]3C[C@@H](O)[C@@H](O)[C@@H]3N2O1` [CBK303243], the viability at 28.5 h, 10 µM is reported as 104%. For `Cc1ccc(NC2=NC(C(=O)Nc3ccc(C)c(C)c3)CC(=O)N2)cc1` (centres unmarked) [CBK266718], the viability at 28.5 h, 10 µM was 96.9%. Work on `O=C(CSc1nnc(-c2ccc3c(c2)OCO3)n1-c1ccccc1)c1ccc(Cl)cc1` [CBK263559] yielded a viability at 28.5 h, 10 µM of 100%. Compound `Cc1cc(-c2nnc3n2N=C(c2ccccc2)CS3)n[nH]1` [CBK287944] has a viability at 28.5 h, 10 µM of 98.3%. Compound `COCCN1CCC(CNC(=O)Nc2cc(C)ccc2F)C1` (centres unmarked) [CBK304631] has a viability at 28.5 h, 10 µM of 117%. Work on `Cc1cc(NC(=O)c2c(F)cccc2F)c2ccccc2n1` [CBK122737] yielded a viability at 28.5 h, 10 µM of 92.7%. Compound `COC(=O)c1ccccc1NC(=O)COc1ccc(Br)c(C)c1` [CBK263152] has a viability at 28.5 h, 10 µM of 89.4%. With `CCC12CN3CC(CC)(CN(C1)C3c1ccccc1[N+](=O)[O-])C2=O` (centres unmarked) [CBK264604] the viability at 28.5 h, 10 µM was 116%. With `COc1ccc(C(C)C)cc1-c1nccnc1NCc1ccc2c(c1)OCO2` [CBK036683] the viability at 28.5 h, 10 µM was 81%. With `CCOC(=O)c1nnsc1Sc1ccc(C)cc1` [CBK018867] the viability at 28.5 h, 10 µM was 89.6%. For `Cc1nc(-c2ccc(CNC(=O)c3cc(=O)[nH]c4ccccc34)o2)cs1` [CBK238261], the viability at 28.5 h, 10 µM was 79.2%. `O=C(c1cc(S(=O)(=O)NCc2ccco2)c(Cl)cc1Cl)N1CCCC1` [CBK306076] showed a viability at 28.5 h, 10 µM of 87.8%. For `CCc1nn(C)cc1CNC1CCCN(c2ccc(C#N)cc2)C1=O` (centres unmarked) [CBK304176], the viability at 28.5 h, 10 µM was 96.4%. `Cc1ccc(OCC(O)CNC(=O)c2ccccc2C(=O)O)cc1` (centres unmarked) [CBK264778] gave a viability at 28.5 h, 10 µM of 116%. `O=C1N[C@@]2(CC3CCC2CC3C(=O)N2CCCC2)Nc2ccccc21` (some centres unmarked) [CBK284449] gave a viability at 28.5 h, 10 µM of 91.8%. For `Cc1cccc(C)c1NC(=O)CN(Cc1ccccc1)Cc1cc2ccc(C)c(C)c2[nH]c1=O` [CBK122696T], the viability at 28.5 h, 10 µM was 94.4%. `CC(=O)Nc1ccc(-c2nc3c4ccccc4c4ccc(I)cc4c3[nH]2)cc1` [CBK262667] showed a viability at 28.5 h, 10 µM of 100%. Work on `COc1ccc(C(NC(=O)C2CCN(Cc3ccc4c(c3)OCO4)CC2)c2ccccc2C)cn1` (centres unmarked) [CBK081453T] yielded a viability at 28.5 h, 10 µM of 121%. Work on `N#Cc1ccc(NCc2ccccc2CN2CCCC2CO)cn1` (centres unmarked) [CBK304077] yielded a viability at 28.5 h, 10 µM of 97.9%. For `CCNC(=O)Nc1nn(Cc2ccc(OC)cc2)c2ccccc12` [CBK105837], the viability at 28.5 h, 10 µM was 94.6%. With `COc1ccccc1C(=O)N1CCC(c2nc(C)n3ccccc23)C1` (centres unmarked) [CBK282221] the viability at 28.5 h, 10 µM was 88.4%. Compound `O=C(Cc1ccsc1)N1C[C@@H]2CCCCN(CC3CC3)[C@@H]2C1` [CBK285507] has a viability at 28.5 h, 10 µM of 104%. Compound `COc1cccc(C(=O)N2CCC[C@@H](N)[C@@H]2c2ccccc2F)c1` [CBK283457] has a viability at 28.5 h, 10 µM of 88.1%. For `O=C(NCCO)c1cccc(-c2cncc(NCCCN3CCOCC3)n2)c1` [CBK065432], the viability at 28.5 h, 10 µM was 99.4%. Compound `CN(C)CCNC(=O)c1cccc(-c2cncc(NCc3ccc4c(c3)OCO4)n2)c1` [CBK065361] has a viability at 28.5 h, 10 µM of 110%. Work on `OC(CN1CCC(O)(c2ccc(C(F)(F)F)cc2)CC1)c1ccccc1` (centres unmarked) [CBK286323] yielded a viability at 28.5 h, 10 µM of 102%. With `CCn1cc(Cl)c(C(=O)NC2CCN(c3nc(C)cc(=O)[nH]3)CC2)n1` [CBK304614] the viability at 28.5 h, 10 µM was 88.5%. Compound `O=C1NCCCCC1N1CCS(=O)(=O)CC1` (centres unmarked) [CBK017083] has a viability at 28.5 h, 10 µM of 99.2%. Compound `FC(F)Oc1ccc(NC(=S)NCCN2CCOCC2)cc1` [CBK028000] has a viability at 28.5 h, 10 µM of 87.7%. `N=C1NC(=O)/C(=C/c2ccc(OC(=O)c3cccc([N+](=O)[O-])c3)cc2)S1` [CBK263606] showed a viability at 28.5 h, 10 µM of 100%. For `CCn1cc(C2CN(S(=O)(=O)c3ccc(F)c(C)c3)CCO2)cn1` (centres unmarked) [CBK305419], the viability at 28.5 h, 10 µM was 91.3%. Work on `CC1Cc2ccccc2N1C(=O)CSc1nnc(N)s1` (centres unmarked) [CBK269530] yielded a viability at 28.5 h, 10 µM of 94.3%. `CN(C)C(=O)CCNC(=O)c1ccc2c(c1)nc(N1CC[C@H](O)C1)n2C` [CBK306671] gave a viability at 28.5 h, 10 µM of 92.4%. In the case of `OCC1CCN(Cc2ccc(OC3CCCC3)cc2)C1` (centres unmarked) [CBK282929], the viability at 28.5 h, 10 µM is reported as 99.5%. For `CN1CCOc2ccccc2C(=O)NC/C=C/CC2(CCN(C(=O)c3ccc(F)cc3)CC2)C1=O` [CBK292055], the viability at 28.5 h, 10 µM was 92%. Work on `Cn1c(NCc2ccco2)nc2c1c(=O)n(Cc1cccc(Br)c1)c(=O)n2C` [CBK268863] yielded a viability at 28.5 h, 10 µM of 79.8%. `COc1ccccc1CC(=O)NCCC(=O)N1CCN(c2ccc(F)cc2)CC1` [CBK298318] showed a viability at 28.5 h, 10 µM of 87.6%. With `COC(=O)c1c(NC(=O)c2cnccn2)sc2c1CCC(C)C2` (centres unmarked) [CBK262654] the viability at 28.5 h, 10 µM was 96.2%. `CNC(=O)c1sc2ccccc2c1C1CCN(S(=O)(=O)c2ccc(C)c(C)c2)C1` (centres unmarked) [CBK285877] showed a viability at 28.5 h, 10 µM of 85.8%. With `OCCN1CC2(CCN(CCc3c[nH]c4ccccc34)CC2)c2ccccc21` [CBK144607T] the viability at 28.5 h, 10 µM was 94.2%. For `COc1ccccc1NC(=O)CN(c1ccc(C)cc1)S(=O)(=O)c1ccc(F)cc1` [CBK262718], the viability at 28.5 h, 10 µM was 91.2%. Work on `CC1CN(S(=O)(=O)c2ccc3c(c2)C(=O)c2cc(S(=O)(=O)N4CC(C)OC(C)C4)ccc2-3)CC(C)O1` (centres unmarked) [CBK263355] yielded a viability at 28.5 h, 10 µM of 101%. In the case of `CC(C)(C)NC(=O)CN1CCC(c2ccc(F)cc2)CC1` [CBK283629], the viability at 28.5 h, 10 µM is reported as 90.1%. `O=C1CC(N2CCN(Cc3ccc4c(c3)OCO4)CC2)C(=O)N1CCc1ccccc1` (centres unmarked) [CBK074541] showed a viability at 28.5 h, 10 µM of 93.7%. For `CC(=O)N1CCC(N2C[C@H](O)C[C@H]2c2nc(C3CC3)no2)CC1` [CBK288845], the viability at 28.5 h, 10 µM was 93.6%. `COc1ccccc1CNC(=O)c1cccc(C)c1[N+](=O)[O-]` [CBK265703] showed a viability at 28.5 h, 10 µM of 87.8%. Compound `CCC(=O)N1CCN(c2nc3ccc(OC)cc3s2)CC1` [CBK287721] has a viability at 28.5 h, 10 µM of 92.2%. `O=C(Nc1ccccn1)c1c(O)n(Cc2ccccc2)c2ccccc2c1=O` [CBK291213] showed a viability at 28.5 h, 10 µM of 90.3%. `O=C(CCC(=O)c1ccc2c(c1)OCCO2)OCC(=O)c1ccc(F)cc1` [CBK264679] gave a viability at 28.5 h, 10 µM of 103%. For `Cc1cccc(C)c1-c1cn2ccnc2c(N2CCN(c3ccccn3)CC2)n1` [CBK037389], the viability at 28.5 h, 10 µM was 89%. For `O=C(NCCN1CCOCC1)C1CCN(C(=O)c2cccc(F)c2)CC1` [CBK304627], the viability at 28.5 h, 10 µM was 85.8%. In the case of `CCOC(=O)c1c(/N=C/c2cc(I)cc(I)c2O)sc2c1CCN(Cc1ccccc1)C2` [CBK262246], the viability at 28.5 h, 10 µM is reported as 106%.

Same assay, conditions: human, hela cells, % viability, bulk resorufin, single well
In the case of `CCOC(=O)C1(c2ccccc2)CCN(C(=O)C(c2ccccc2)c2ccccc2)CC1` [CBK132202], the viability at 28.5 h, 10 µM is reported as 100%. Compound `NC(=O)C[S+]([O-])C(c1ccccc1)c1ccccc1` (centres unmarked) [CBK026184] has a viability at 28.5 h, 10 µM of 102%. `CC(=O)N1CCC2(CC1)OCc1cc(-c3cncc4ccccc34)ccc1O2` [CBK061010] showed a viability at 28.5 h, 10 µM of 90.4%.
